Laboratory results as given in patent publication US20260274833A1 (NiKang Therapeutics, Inc., priority 2022, published 2026).
pIC50: −log10 of the molar value.

Biological target: T1, CDK2 (Homo sapiens, UniProt P24941)
T1 construct: endogenous in cells; host or cells: OVCAR3 cells
Test: Phospho-RB measurement in OVCAR3 cells (HTRF phospho-RB cellular kit)
Type: cell-based
Settings: inhibition of RB phosphorylation at S807/811 (HTRF, TR-FRET ratio 665/620), 24 h compound treatment, 0.3 to 10,000 nM
Summary of the method: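 IC50 came from a four-parameter logistic fit of the DMSO-normalized TR-FRET ratio (665/620 nm). That ratio reflects RB phosphorylation at S807/811, read with an HTRF antibody pair 4 h after adding lysate at room temperature.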

| SMILES | pIC50 |
| --- | --- |
| CC(C)(C)c1nc(-c2cccc(NS(=O)(=O)N3CCc4ccc(C(C)(C)C#N)cc43)c2F)c(-c2ccnc(NC3CC4(C3)CS(=O)(=O)C4)n2)s1 [Example 260, N-(3-(2-(tert-butyl)-S-(2-((2,2-dioxido-2-thiaspiro[3.3]heptan-6-yl)amino)-pyrimidin-4-yl)thiazol-4-yl)-2-fluoro-phenyl)-6-(2-cyanopropan-2-yl)indoline-1-sulfonamide] | 6.18 |
| CC(C)(C)c1nc(-c2cccc(NS(=O)(=O)N3CCc4ccc(S(C)(=O)=O)cc43)c2F)c(-c2ccnc(NC3CC4(C3)CS(=O)(=O)C4)n2)s1 [Example 261, N-(3-(2-(tert-butyl)-5-(2-((2,2-dioxido-2-thiaspiro[3.3]heptan-6-yl)amino)-pyrimidin-4-yl)thiazol-4-yl)-2-fluoro-phenyl)-6-(methylsulfonyl)-indoline-1-sulfonamide] | 6.16 |
| CC(C)(C)c1nc(-c2cccc(NS(=O)(=O)N3Cc4cccc(C(F)F)c4C3)c2F)c(-c2ccnc(NC3CC4(C3)CS(=O)(=O)C4)n2)s1 [Example 262, N~(3-(2-(tert-butyl)-5-(2-((2,2-dioxido-2-thiaspiro[3.3]heptan-6-yl)amino)-pyrimidin-4-yl)thiazol-4-yl)-2-fluoro-phenyl)-4-(difluoromethyl)-isoindoline-2-sulfonamide] | 7.51 |
| N#Cc1ccc2c(c1)N(S(=O)(=O)Nc1cccc(-c3nc(C45CC(C4)C5)sc3-c3ccnc(NC4CCN(S(=O)(=O)N5CCNCC5)CC4)n3)c1F)CC2 [Example 263, N-(3-(2-(bicyclo [1.1.1]pentan-1-yl)-5-(2-((1-(piperazin-1-ylsulfonyl)piperidin-4-yl)amino)-pyrimidin-4-yl)thiazol-4-yl)-2-fluorophenyl)-6-cyanoindoline-1-sulfonamide] | 6.93 |
| O=S1(=O)CC2(CC(Nc3nccc(-c4sc(C56CC(C5)C6)nc4-c4cccc(NS(=O)(=O)N5CCc6ccncc65)c4F)n3)C2)C1 [Example 264, N-(3-(2-(bicyclo [1.1.1]pentan-1-yl)-5-(2-((2,2-dioxido-2-thiaspiro[3.3]heptan-6-yl)amino)-pyrimidin-4-yl)thiazol-4-yl)-2-fluorophenyl)-2,3-dihydro-1H-pyrrolo[2,3-c]pyridine-1-sulfonamide] | 5.74 |
| O=S1(=O)CC2(CC(Nc3nccc(-c4sc(C56CC(C5)C6)nc4-c4cccc(NS(=O)(=O)N5C6CCC5CC6)c4F)n3)C2)C1 [Example 265, N-(3-(2-(bicyclo[1.1. 1]pentan-1-yl)-5-(2-((2,2-dioxido-2-thiaspiro[3.3]heptan-6-yl)amino)-pyrimidin-4-yl)thiazol-4-yl)-2-fluorophenyl)-7-azabicyclo[2.2.1]-heptane-7-sulfonamide] | 5.28 |
| O=S1(=O)CC2(CC(Nc3nccc(-c4sc(C56CC(C5)C6)nc4-c4cccc(NS(=O)(=O)N5C6CCC5CC(F)(F)C6)c4F)n3)C2)C1 [Example 266, N-(3-(2-(bicyclo [1.1.1]pentan-1-yl)-5-(2-((2,2-dioxido-2-thiaspiro[3.3]heptan-6-yl)amino)-pyrimidin-4-yl)thiazol-4-yl)-2-fluorophenyl)-3,3-difluoro-8-azabicyclo-[3.2.1]octane-8-sulfonamide] | 5.07 |
| O=S1(=O)CC2(CC(Nc3nccc(-c4sc(C56CC(C5)C6)nc4-c4cccc(NS(=O)(=O)N5CC6CCC5CC6)c4F)n3)C2)C1 [Example 267, (1s,4s)-N-(3-(2-(bicyclo[1.1.1]pentan-]-yl)-5-(2-((2,2-dioxido-2-thiaspiro-[3.3]heptan-6-yl)amino)pyrimidin-4-yl)thiazol-4-yl)-2-fluorophenyl)-2-azabicyclo[2.2.2] octane-2-sulfonamide] | 5.03 |
| O=S1(=O)CC2(CC(Nc3nccc(-c4sc(C56CC(C5)C6)nc4-c4cccc(NS(=O)(=O)N5C6CCC5c5ccccc56)c4F)n3)C2)C1 [Example 268, N-(3-(2-(bicyclo [1.1.1]pentan-1-yl)-5-(2-((2,2-dioxido-2-thiaspiro[3.3]heptan-6-yl)amino)-pyrimidin-4-yl)thiazol-4-yl)-2-fluorophenyl)-1,2,3,4-tetrahydro-1,4-epiminonaphthalene-9-sulfonamide] | 5.08 |
| CS(=O)(=O)CC12CC(Nc3nccc(-c4sc(C56CC(C5)C6)nc4-c4cccc(NS(=O)(=O)N5CCc6ccc(Cl)cc65)c4F)n3)(C1)C2 [Example 269, N-(3-(2-(bicyclo [1.1.1]pentan-1-yl)-5-(2-((3-((methylsulfonyl)methyl)bicyclo-[1.1.1]pentan-1-yl)amino)pyrimidin-4-yl)thiazol-4-yl)-2-fluorophenyl)-6-chloroindoline-1-sulfonamide] | 7.15 |
| O=S1(=O)CC2(CC(Nc3nccc(-c4sc(C56CC(C5)C6)nc4-c4cccc(NS(=O)(=O)N5CC6CCC(CC6)C5)c4F)n3)C2)C1 [Example 270, (1s,5s)-N-(3-(2-(bicyclo[1.1.1]pentan-1-yl)-5-(2-((2,2-dioxido-2-thiaspiro[3.3]-heptan-6-yl)-amino)pyrimidin-4-yl)thiazol-4-yl)-2-fluorophenyl)-3-azabicyclo[3.2.2] nonane-3-sulfonamide] | 5.46 |
| N=S1(=O)CC2(CC(Nc3nccc(-c4sc(C56CC(C5)C6)nc4-c4cccc(NS(=O)(=O)N5CCc6ccccc65)c4F)n3)C2)C1 (stereo not shown) [Example 271, N-(3-(2-(bicyclo [1.1.1]pentan-1-yl)-5-(2-((2-imino-2-oxido-26-thiaspiro[3.3]-heptan-6-yl)-amino)pyrimidin-4-yl)thiazol-4-yl)-2-fluorophenyl) indoline-1-sulfonamide] | 5.09 |
| O=S1(=O)CC2(CC(Nc3nccc(-c4sc(C56CC(C5)C6)nc4-c4cccc(NS(=O)(=O)N5CCOc6ccccc6C5)c4F)n3)C2)C1 [Example 272, N-(3-(2-(bicyclo [1.1.1]pentan-1-yl)-5-(2-((2,2-dioxido-2-thiaspiro[3.3]heptan-6-yl)amino)-pyrimidin-4-yl)thiazol-4-yl)-2-fluorophenyl)-2,3-dihydrobenzo-[f][1,4]oxazepine-4(5H)-sulfonamide] | 6.46 |
| O=S1(=O)CC2(CC(Nc3nccc(-c4sc(C56CC(C5)C6)nc4-c4cccc(NS(=O)(=O)N5CCOCc6ccccc65)c4F)n3)C2)C1 [Example 273, N-(3-(2-(bicyclo [1.1.1]pentan-1-yl)-5-(2-((2,2-dioxido-2-thiaspiro[3.3]heptan-6-yl)amino)-pyrimidin-4-yl)thiazol-4-yl)-2-fluorophenyl)-2,3-dihydrobenzo-[e][1,4]oxazepine-1(5H)-sulfonamide] | 5.48 |
| CN1CCN(S(=O)(=O)Nc2cccc(-c3nc(C45CC(C4)C5)sc3-c3ccnc(NC4CC5(C4)CS(=O)(=O)C5)n3)c2F)c2ccccc21 [Example 274, N-(3-(2-(bicyclo [1.1.1]pentan-1-yl)-5-(2-((2,2-dioxido-2-thiaspiro[3.3]heptan-6-yl)amino)-pyrimidin-4-yl)thiazol-4-yl)-2-fluorophenyl)-4-methyl-3,4-dihydro-quinoxaline-1(2H)-sulfonamide] | 6.88 |
| CN1CCN(S(=O)(=O)Nc2cccc(-c3nc(C45CC(C4)C5)sc3-c3ccnc(NC4CC5(C4)CS(=O)(=O)C5)n3)c2F)Cc2ccccc21 [Example 275, N-(3-(2-(bicyclo [1.1.1]pentan-1-yl)-5-(2-((2,2-dioxido-2-thiaspiro[3.3]heptan-6-yl)amino)-pyrimidin-4-yl)thiazol-4-yl)-2-fluorophenyl)-1-methyl-1,2,3,5-tetrahydro-4H-benzo[e][1,4]-diazepine-4-sulfonamide] | 6.47 |
| CS(=O)(=O)[C@H]1CC[C@H](Nc2nccc(-c3sc(C45CC(F)(C4)C5)nc3-c3cccc(NS(=O)(=O)N4CCc5ccc(C(F)(F)F)cc54)c3F)n2)CC1 [Example 276, N-(2-fluoro-3-(2-(3-fluorobicyclo-[1.1.1]pentan-1-yl)-5-(2-(((1s,4s)-4-(methylsulfonyl)-cyclohexyl)amino)-pyrimidin-4-yl)thiazol-4-yl)phenyl)-6-(trifluoromethyl) indoline-1-sulfonamide] | 6.72 |
| O=S1(=O)CC2(CC(Nc3nccc(-c4sc(C56CC(F)(C5)C6)nc4-c4cccc(NS(=O)(=O)N5CCc6ccc(C(F)(F)F)cc65)c4F)n3)C2)C1 [Example 277, N-(3-(5-(2-((2,2-dioxido-2-thiaspiro-[3.3]-heptan-6-yl)amino)pyrimidin-4-yl)-2-(3-fluorobicyclo [1.1.1]pentan-1-yl)-thiazol-4-yl)-2-fluorophenyl)-6-(trifluoromethyl) indoline-1-sulfonamide] | 6.95 |
| O=S1(=O)CC2(CC(Nc3nccc(-c4sc(C56CC(C(F)F)(C5)C6)nc4-c4cccc(NS(=O)(=O)N5CCc6ccc(C(F)(F)F)cc65)c4F)n3)C2)C1 [Example 278, N-(3-(2-(3-(difluoromethyl)bicyclo-[1.1.1]-pentan-1-yl)-5-(2-((2,2-dioxido-2-thiaspiro[3.3]heptan-6-yl)amino)-pyrimidin-4-yl)thiazol-4-yl)-2-fluorophenyl)-6-(trifluoromethyl)-indoline-1-sulfonamide] | 6.99 |
| O=S1(=O)CC2(CC(Nc3nccc(-c4sc(C56CC(C(F)(F)F)(C5)C6)nc4-c4cccc(NS(=O)(=O)N5CCc6ccc(C(F)(F)F)cc65)c4F)n3)C2)C1 [Example 279, N-(3~(5-(2-((2,2-dioxido-2-thiaspiro-[3.3]heptan-6-yl)amino)pyrimidin-4-yl)-2-(3-(trifluoromethyl)bicyclo[1.1.1]-pentan-1-yl)thiazol-4-yl)-2-fluoro-phenyl)-6-(trifluoromethyl) indoline-1-sulfonamide] | 6.39 |
| O=S1(=O)CC2(CC(Nc3nccc(-c4sc(C56CC(C(F)(F)F)(C5)C6)nc4-c4cccc(NS(=O)(=O)N5CCc6ccc(Cl)cc65)c4F)n3)C2)C1 [Example 280, 6-chloro-N-(3-(5-(2-((2,2-dioxido-2-thiaspiro[3.3]heptan-6-yl)amino)-pyrimidin-4-yl)-2-(3-(trifluoromethyl)-bicyclo[1.1.1]pentan-1-yl)thiazol-4-yl)-2-fluorophenyl) indoline-1-sulfonamide] | 6.54 |
| O=S1(=O)CC2(CC(Nc3nccc(-c4sc(C56CC(C(F)(F)F)(C5)C6)nc4-c4cccc(NS(=O)(=O)N5CCc6ccccc65)c4F)n3)C2)C1 [Example 281] | 6.13 |
